Data reported in US10646475B2, “SHMT inhibitors” (The Trustees of Princeton University, priority 2015, dated 2020).
Entries after “also recorded” stand apart in the source; their conditions may differ.

Legend:
human SHMT2 = target: T1, human SHMT2 (Homo sapiens, UniProt P34897); assay: SHMT2 in vitro coupled enzymatic assay (coupled with excess MTHFD2, NADH absorption at 340 nm); type: biochemical; conditions: for IC50: inhibition of initial reaction velocity
T1 sequence (P34897 30-504): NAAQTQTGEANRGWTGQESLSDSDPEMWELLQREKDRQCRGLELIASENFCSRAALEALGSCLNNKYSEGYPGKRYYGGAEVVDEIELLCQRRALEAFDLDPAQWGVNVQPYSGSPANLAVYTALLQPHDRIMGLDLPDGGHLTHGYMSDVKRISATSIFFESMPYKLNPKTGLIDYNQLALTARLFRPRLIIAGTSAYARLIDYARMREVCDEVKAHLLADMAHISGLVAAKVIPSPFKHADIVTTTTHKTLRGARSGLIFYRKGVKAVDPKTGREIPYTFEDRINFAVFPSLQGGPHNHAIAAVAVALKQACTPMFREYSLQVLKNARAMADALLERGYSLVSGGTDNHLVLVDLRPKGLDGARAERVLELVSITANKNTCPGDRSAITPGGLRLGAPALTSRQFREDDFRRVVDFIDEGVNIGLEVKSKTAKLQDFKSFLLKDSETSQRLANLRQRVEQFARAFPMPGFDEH

human SHMT1 = target: T2, human SHMT1 (Homo sapiens, UniProt P34896); assay: SHMT1 in vitro coupled enzymatic assay (coupled with excess MTHFD2, NADH absorption at 340 nm); type: biochemical; conditions: for IC50: inhibition of initial reaction velocity
T2 sequence (P34896 1-483): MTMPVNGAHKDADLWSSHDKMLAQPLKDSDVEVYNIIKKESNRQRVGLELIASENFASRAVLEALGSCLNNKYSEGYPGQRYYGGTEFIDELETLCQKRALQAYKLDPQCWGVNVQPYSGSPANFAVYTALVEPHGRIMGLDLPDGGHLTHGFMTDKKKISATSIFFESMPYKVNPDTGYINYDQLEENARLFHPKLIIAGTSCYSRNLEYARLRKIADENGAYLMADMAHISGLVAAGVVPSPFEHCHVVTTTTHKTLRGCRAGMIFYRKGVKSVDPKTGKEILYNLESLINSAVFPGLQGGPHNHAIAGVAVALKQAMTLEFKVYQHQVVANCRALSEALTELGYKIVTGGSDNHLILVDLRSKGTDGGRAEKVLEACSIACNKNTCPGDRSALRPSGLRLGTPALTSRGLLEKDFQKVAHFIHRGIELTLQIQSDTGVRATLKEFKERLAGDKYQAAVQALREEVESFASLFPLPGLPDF

HEK293T cells = assay: Cell growth assay (resazurin), wild-type HEK293T; type: cell-based, human; conditions: for inhibition of cell growth: varying concentrations
Method: HEK293T cells were cultured in 96-well plates in Dulbecco's modified eagle media (DMEM) without pyruvate with 10% dialysed fetal bovine serum (Invitrogen) in 5% CO2 at 37° C. 24 hours after plating, cells were treated with various concentrations of inhibitor. Growth was serially assessed using the resazurin (‘AlamarBlue’) assay.
(§1) The described cell lines used in Examples 9-11 were cultured in 96-well plates in Dulbecco's modified eagle media (DMEM) without pyruvate (CELLGRO) with 10% dialysed fetal bovine serum (Invitrogen) in 5% CO2 at 37° C. Approximately 2,500 cells were plated in each well in 90 uL of media. After 24 hours cells were treated with various concentrations of inhibitor (time=0 hours), with or without formate. Growth was assessed at multiple time points (time=0, 24, 48, 72 hours) through measurement of fluorescence at 595 nm (excitation at 535 nm) on a BioTek micro titer plate reader after incubation with resazurin (0.01 mg/mL for 1.5 hours). IC50 curves were generated from percent inhibition of growth at 72 hours.

[1] = tested on: SHMT2 knock-out HEK293 cells; assay: Cell growth assay (resazurin), SHMT2 knock-out 293T; type: cell-based, human; conditions: varying concentrations
Method: HEK293T cell lines mutant for SHMT1 and SHMT2 were created using the CRISPR-Cas9 system following standard published protocols. Single clones from successful transfections were grown up, genotyped and characterized.
(§2) Inhibitors of SHMT were evaluated in wildtype, SHMT2 knock-out, and MTHFD2 knock-out 293T cells (FIG. 6(a) and FIG. 6(b)).
as §1

[2] = tested on: MTHFD2 knock-out HEK293T cells; assay: Cell growth assay (resazurin), MTHFD2 knock-out 293T; type: cell-based, human; conditions: varying concentrations
Method: as §2, §1

[3] = tested on: 8988T pancreatic cancer cells; assay: Cancer cell growth assay (resazurin), 8988T; type: cell-based, human; conditions: 8988T (MTHFD1L mutation), varying concentrations, FIG. 7
Method: (§3) Inhibitors of SHMT were evaluated in various cancer cell lines. […] This cancer cell line comprises (harbors) a mutation in a component of the mitochondrial folate pathway. Specifically, one or more cells in this line comprise a mutation in the downstream mitochondrial folate enzyme, MTHFD1L.
as §1

[4] = tested on: HCT116 human colon carcinoma cells; assay: Cancer cell growth assay (resazurin), HCT116; type: cell-based; conditions: HCT116, varying concentrations, FIG. 7
Method: as §3, §1

human MTHFD2 = target: T3, human MTHFD2 (Homo sapiens, UniProt P13995); assay: MTHFD2 in vitro assay (rate of NADH formation at 340 nm); type: biochemical; conditions: FIG. 3(c)
T3 sequence (P13995 36-350): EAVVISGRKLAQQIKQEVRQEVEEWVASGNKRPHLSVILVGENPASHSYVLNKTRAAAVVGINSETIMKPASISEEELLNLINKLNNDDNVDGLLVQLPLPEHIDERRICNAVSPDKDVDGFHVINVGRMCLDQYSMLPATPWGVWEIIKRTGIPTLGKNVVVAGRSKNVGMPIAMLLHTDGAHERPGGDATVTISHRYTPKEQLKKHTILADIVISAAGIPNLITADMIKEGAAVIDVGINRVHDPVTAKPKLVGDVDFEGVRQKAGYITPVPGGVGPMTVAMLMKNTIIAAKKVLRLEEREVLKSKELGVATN
From the text: For the MTHFD2 in vitro assay (FIG. 3(c)), the rate of NADH formation was directly monitored at 340 nm.

[5] = tested on: human cells expressing SHMT2; assay: Measurement of AICAR, marker for one-carbon unit stress, in cells; type: cell-based; conditions: treatment for 24 hours, increasing concentrations, FIG. 2(b)
Method: HEK-293T cells were cultured in 6-well plates in Dulbecco's modified eagle media (DMEM) without pyruvate with 10% dialysed fetal bovine serum in 5% CO2 at 37° C. […] Growth was quenched and metabolites extracted by aspirating media, washing cells with cold PBS, and immediately adding MeOH/water (80:20 at −80° C.). Supernatants from two rounds of extraction were combined, dried under N2, resuspended in water, placed in a 4° C. autosampler, and analyzed by reverse-phase ion-paring chromatography negative-mode electrospray-ionization high-resolution MS on a stand-alone orbitrap.
Generation of AICAR provides an assay to evaluate one-carbon unit stress. Inhibition of SHMT2 in cells decreases serine metabolism and leads to one-carbon stress. […] Such cells show high constitutive levels of 5-aminoimidazole-4-carboxamide ribonucleotide (AICAR), a marker for one-carbon unit stress, when cultured in media (left bar in FIG. 2(a)). This can be rescued by exogenous treatment with sodium formate (right bar in FIG. 2(a)).
(*) indicates AICAR was below the limit of detection.

[6] = tested on: SHMT serine metabolic activity in SHMT2 expressing human cells; assay: Isotope labeling of serine metabolism in cells (labeled serine, LC-MS); type: cell-based; conditions: uniformly labeled serine, FIG. 2(c)
Method: Using 2,3,3-^2H3-serine (D3-serine) as a tracer, mitochondrial flux was measured by quantifying the labeling pattern of dTTP, a downstream product of dTMP. […] This assay was used to examine mitochondrial serine flux and the effect of compounds of the disclosure on mitochondrial serine flux, in either wildtype or mutant cells.
Uniformly labeled serine is metabolized into various isoptomers in WT cells by the forward and reverse enzymatic activity of SHMT.

Compound: Cc1nn(C)c2c1C(c1cc(C(F)(F)F)cc(C(F)(F)F)c1)(C(C)C)C(C#N)=C(N)O2 (stereo not shown) [KDG-4]
- IC50 (human SHMT2; table of Example 6): > 5 µM
- IC50 (human SHMT1; table of Example 6): > 5 µM

Compound: Cc1n[nH]c2c1C(c1cc(C(F)(F)F)cc(C(F)(F)F)c1)(C1CCC1)C(C#N)=C(N)O2 (stereo not shown) [HK-12]
- IC50 (human SHMT2; Table A): 0.168 µM
- IC50 (human SHMT2; table of Example 6): 0.168 µM
- IC50 (human SHMT1; Table A): 0.206 µM
- IC50 (human SHMT1; table of Example 6): 0.206 µM

Compound: Cc1n[nH]c2c1C(c1cccc(Cl)c1)(C1CCC1)C(C#N)=C(N)O2 (stereo not shown) [HK-3]
- IC50 (human SHMT2; Table A): 1.19 µM
- IC50 (human SHMT2; table of Example 6): 1.19 µM

Compound: Cc1n[nH]c2c1C(c1cc(Cl)cc(Cl)c1)(C(C)C)C(C#N)=C(N)O2 (racemic) [HK-14]
- IC50 (human SHMT2; Table A): 0.131 µM
- IC50 (human SHMT1; Table A): 0.067 µM

Compound: Cc1n[nH]c2c1C(c1cc(Cl)cc(C(F)(F)F)c1)(C1CCC1)C(C#N)=C(N)O2 (stereo not shown) [HK-11]
- IC50 (human SHMT2; Table A): 0.1 µM
- IC50 (human SHMT2; table of Example 6): 0.1 µM

Compound: Cc1n[nH]c2c1C(c1cc(Cl)cc(Cl)c1)(C1CCC1)C(C#N)=C(N)O2 (racemic) [HK-10]
- IC50 (human SHMT2; Table A): 0.159 µM

Compound: Cc1n[nH]c2c1C(c1cccc(Cl)c1)(C(C)C)C(C#N)=C(N)O2 (stereo not shown) [HK-7]
- IC50 (human SHMT2; Table A): 0.401 µM
- IC50 (human SHMT2; table of Example 6): 0.401 µM

Compound: Cc1n[nH]c2c1C(c1cc(C(F)(F)F)cc(C(F)(F)F)c1)(C(C)C)C(C#N)=C(N)O2 (stereo not shown) [HK-16 (PK-2)]
- anti-SHMT2 activity of resolved enantiomers of HK-16 (human SHMT2; FIG. 4(a)): confined to the enantiomer represented by “Peak 2”
- activity against SHMT1 in an in vitro enzyme assay (human SHMT1; FIG. 4(b)): active
- rescue of growth inhibitory effects by formate (HEK293T cells; compound at 10 μM, co-culture with formate at 1 mM, FIG. 8): rescued
- inhibition of cell growth (HEK293T cells; FIG. 5, 6, listed as HK-16-P2): active
- inhibition of cell growth (HEK293T cells; FIG. 5, 6, listed as Peak 2): inhibited in a dose-dependent manner; also recorded: inhibited cell growth
- inhibition of cell growth ([1]; FIG. 6, listed as HK-16-P2): active; also recorded: increased sensitivity to inhibition
- inhibition of cell growth ([1]; FIG. 6, listed as Peak 2): inhibited cell growth
- inhibition of cell growth ([2]; FIG. 6, listed as HK-16-P2): active; also recorded: increased sensitivity to inhibition
- inhibition of cell growth ([2]; FIG. 6, listed as Peak 2): inhibited cell growth
- inhibition of cancer cell growth ([3]; listed as HK-16 (peak 2)): more sensitive
- inhibition of cancer cell growth ([3]; listed as HK-16-P2): significantly more sensitive; also recorded: inhibited growth
- inhibition of cancer cell growth ([4]; listed as HK-16-P2): inhibits cancer cell growth; also recorded: inhibited growth

Compound: COc1cc(Cl)cc(C2(C3CCC3)C(C#N)=C(N)Oc3[nH]nc(C)c32)c1 (stereo not shown) [HK-9]
- IC50 (human SHMT2; Table A): 3.46 µM
- IC50 (human SHMT2; table of Example 6): 3.46 µM

Compound: Cc1n[nH]c2c1C(c1cc(C(F)(F)F)cc(C(F)(F)F)c1)(C(C)C)C(C#N)=C(N)O2 (racemic) [HK-16]
- inhibition of human MTHFD2 in enzymatic assays (human MTHFD2): do not inhibit
- AICAR accumulation [5]: AICAR accumulation in a dose-dependent manner
- SHMT serine metabolic activity in cells [6]: inhibited in cells by HK-16 in a dose-dependent manner

Compound: Cc1nn(-c2ccccc2)c2c1C(c1cc(C(F)(F)F)cc(C(F)(F)F)c1)(C(C)C)C(C#N)=C(N)O2 (stereo not shown) [KDG-5]
- IC50 (human SHMT2; table of Example 6): > 5 µM
- IC50 (human SHMT1; table of Example 6): > 5 µM

Compound: COc1cccc(C2(C(C)C)C(C#N)=C(N)Oc3[nH]nc(C)c32)c1 (stereo not shown) [HK-6]
- IC50 (human SHMT2; Table A): 4.58 µM
- IC50 (human SHMT2; table of Example 6): 4.58 µM

Compound: CC(C)c1n[nH]c2c1C(c1cc(C(F)(F)F)cc(C(F)(F)F)c1)(C(C)C)C(C#N)=C(N)O2 (stereo not shown) [KDG-12]
- IC50 (human SHMT2; table of Example 6): 0.071 µM
- IC50 (human SHMT1; table of Example 6): 0.0093 µM

Compound: Cc1n[nH]c2c1C(c1cc(Cl)cc(C(F)(F)F)c1)(C(C)C)C(C#N)=C(N)O2 (racemic) [HK-15]
- IC50 (human SHMT2; Table A): 0.035 µM
- IC50 (human SHMT1; Table A): 0.02 µM
- inhibition of human MTHFD2 in enzymatic assays (human MTHFD2): do not inhibit

Compound: Cc1n[nH]c2c1C(c1cc(C(F)(F)F)cc(C(F)(F)F)c1)(C(C)C)C(C#N)=C(N)O2 (single isomer, unassigned) [HK-16 (PK-1)]
- inhibition of cell growth (HEK293T cells; FIG. 5, 6): not inhibited
- inhibition of cell growth (HEK293T cells; FIG. 5, 6, listed as HK-16-P1): significantly less or no effect
- inhibition of cell growth (HEK293T cells; FIG. 5, 6, listed as Peak 1): not appreciably inhibited; also recorded: little or no activity
- inhibition of cell growth ([1]; FIG. 6, listed as HK-16-P1): significantly less or no effect
- inhibition of cell growth ([1]; FIG. 6, listed as Peak 1): Some, although a lower degree of activity
- inhibition of cell growth ([2]; FIG. 6, listed as HK-16-P1): significantly less or no effect
- inhibition of cell growth ([2]; FIG. 6, listed as Peak 1): Some, although a lower degree of activity
- inhibition of cancer cell growth ([4]; listed as HK-16-P1): does not inhibit cell growth

Compound: COc1cc(Cl)cc(C2(C(C)C)C(C#N)=C(N)Oc3[nH]nc(C)c32)c1 (stereo not shown) [HK-13]
- IC50 (human SHMT2; Table A): 0.5 µM
- IC50 (human SHMT2; table of Example 6): 0.5 µM

Compound: COc1cccc(C2(C3CCC3)C(C#N)=C(N)Oc3[nH]nc(C)c32)c1 (racemic) [HK-2]
- inhibition of human MTHFD2 in enzymatic assays (human MTHFD2): do not inhibit
